Peptide text beside a SMILES is read from it.

One assay deals with S. aureus ATCC 25923. The assay is described as follows: MIC, broth microdilution (CLSI), ATCC reference strain. The class given is cell-based, Staphylococcus aureus. How it is done:
(§1) The minimum inhibitory concentration (MIC) of synthetic peptides was determined using the broth microdilution method in cation-adjusted Mueller-Hinton broth (MHB2 – Sigma-Aldrich, St. Louis, MO, United States), according to the recommendations of the Clinical and Laboratory Standards Institute ([CLSI, 2012]), against four reference strains, namely, P. aeruginosa ATCC 27853, E. coli ATCC 25922, S. aureus ATCC 25923 and Enterococcus faecalis ATCC 29212. MIC values of peptide 3.1-PP4 were also determined against MDR clinical isolates of P. aeruginosa (PA002, PA004, Pa3, Pa4), E. coli (Ec1, Ec2, EC001, EC002, EC003) and K. pneumoniae (KP004, KP007, KP010). The peptides were tested in the concentration range of 1–1024 μg/mL. The minimum bactericidal concentration (MBC) was determined as previously reported ([Bessa et al., 2018]). According to CLSI guidelines for antimicrobial susceptibility testing, MIC values were determined for all peptides against ATCC reference strains of two Gram-positive (S. aureus ATCC 25923 and E. faecalis ATCC 29212), and two Gram-negative (P. aeruginosa ATCC 27853 and E. coli ATCC 25922) bacterial species, and are shown in Table 2.
(In general: Broth dilution looks for growth in wells or tubes with falling amounts of substance.)

Another assay has as its system E. faecalis ATCC 29212. The description is as above. It is filed as cell-based, Enterococcus faecalis. How it is done: as §1
Assay [1] deals with preformed biofilm of MDR P. aeruginosa PA004. The assay is described as follows: Biofilm metabolic activity (MTT). The class given is cell-based, Pseudomonas aeruginosa. The note with it: isolate PA004, 24 h preformed biofilm, 20 × MIC, 24 h at 37°C, absorbance 570 nm. How it is done: The respective control biofilms were equally formed but in absence of the peptide (only TSB medium was used). Afterward, the bacterial metabolic activity of biofilms was quantified after adding 3-(4,5-dimethylthiazole-2-yl)-2,5-diphenyl tetrazolium bromide (MTT, 0.5 mg/mL – Sigma-Aldrich, St. Louis, MO, United States) for 3 h at 37°C in the dark. DMSO was used to dissolve the formazan crystals formed and the absorbance at 570 nm was measured. Two independent experiments were performed in four replicates.
The influence of the peptide on the metabolic activity of preformed biofilms of one P. aeruginosa (PA004) and three K. pneumoniae (KP004, KP007, and KP010) isolates was also assessed, through a standard MTT assay.

For assay [2], the system named is multidrug-resistant isolates of Klebsiella pneumoniae, E. coli, and P. aeruginosa. The class given is cell-based. As to the method: as §1, with “2018]).” for “2018]). According to CLSI guidelines for antimicrobial susceptibility testing, MIC values were determined for all peptides against ATCC reference strains of two Gram-positive (S. aureus ATCC 25923 and E. faecalis ATCC 29212), and two Gram-negative (P. aeruginosa ATCC 27853 and E. coli ATCC 25922) bacterial species, and are shown in Table 2.”
In view of the above results, peptide conjugate 3.1-PP4 was selected for further investigation of its activity against MDR isolates of three Gram-negative bacterial species, namely, P. aeruginosa (four isolates), E. coli (five isolates), and K. pneumoniae (four isolates), whose antimicrobial resistance patterns are provided in the Supplementary Table S1. […]

Assay [3] deals with MDR P. aeruginosa isolates (PA002, PA004, Pa3). Kind of assay: Inhibition of biofilm formation, crystal violet assay. The class given is cell-based, Pseudomonas aeruginosa. The note with it: in TSB. As to the method:
(§2) The ability of peptide 3.1-PP4 to inhibit the biofilm formation by three P. aeruginosa isolates (PA002, PA004, Pa3) and by three K. pneumoniae isolates (KP004, KP007 and KP010) was assessed at concentrations equal to the MIC, 1/2 × MIC and 1/4 × MIC in tryptic soy broth – (TSB – Liofilchem s.r.l., Italy) using the crystal violet assay as reported by [Gomes et al. (2014)]. Two independent experiments were performed in triplicate.
(§3) Some of the MDR isolates of P. aeruginosa and K. pneumoniae were randomly selected to form biofilms in the absence (controls) and presence (at MIC, 1/2 × MIC and 1/4 × MIC) of the peptide 3.1-PP4. In this assay, the test compounds were used at sub-inhibitory concentrations, since if they had been present at the MIC or higher concentrations, bacteria would be killed before starting to produce the biofilms.
(§4) FIGURE 1 Biofilm biomass quantitation of biofilms formed in the presence of peptide 3.1-PP4. Biofilms of three MDR P. aeruginosa (PA002, Pa3, and PA004) and of three MDR K. pneumoniae (KP004, KP007, and KP010) were formed in the presence of the peptide at three different concentrations, MIC, 1/2 × MIC, and 1/4 × MIC. Control biofilms were grown in absence of the peptide. Two independent experiments were performed in triplicate. Error bars represent SD. […]

In assay [4] the test system is MDR K. pneumoniae isolates (KP004, KP007, KP010). The description is as above. It is filed as cell-based, Klebsiella pneumoniae. The note with it: in TSB. How it is done: as §2, §3, §4

In the case of `CC(C)C[C@H](NC(=O)[C@H](Cc1c[nH]c2ccccc12)NC(=O)[C@H](CCCCN)NC(=O)[C@H](CC(C)C)NC(=O)[C@H](CC(C)C)NC(=O)[C@H](CCCCN)NC(=O)[C@@H](N)CCCCN)C(=O)N[C@@H](CC(C)C)C(=O)N[C@@H](CCCCN)C(=O)N[C@@H](CC(C)C)C(=O)N[C@@H](CC(C)C)C(=O)N[C@@H](CCCCN)C(=O)N[C@H](C(=O)N[C@H](C(=O)N[C@@H](CCCCN)C(=O)N[C@@H](CO)C(N)=O)[C@@H](C)O)[C@@H](C)O` [Peptide 3.1-PP4] (H-KKLLKWLLKLLKTTKS-NH2; N-terminus assumed), the MIC against S. aureus ATCC 25923 (ATCC 25923) worked out at 16 µM; in the assay with S. aureus ATCC 25923 (S. aureus ATCC 25923, broth microdilution in MHB2, CLSI, range tested 1–1024 μg/mL), 32 mg/L; in the assay with E. faecalis ATCC 29212 (ATCC 29212), 33 µM; against E. faecalis ATCC 29212 (E. faecalis ATCC 29212, broth microdilution in MHB2, CLSI, range tested 1–1024 μg/mL), 64 mg/L. In assay [1], the “% reduction of metabolic activity in peptide-treated biofilms” value amounted to 8.3%. Also, the “MIC values against multidrug-resistant isolates” value in assay [2] lay in the range of 0.5 to 4.1 µM. The “biofilm formation (crystal violet absorbance at 595 nm)” value is “does not significantly inhibit biofilm formation” in assay [3] (peptide at 1/2 and 1/4 of the MIC, three P. aeruginosa isolates); “no biofilm was actually produced” in assay [3] (peptide at MIC, exception isolate PA002, two experiments in triplicate); “no biofilm was actually produced” in assay [4] (peptide at MIC, K. pneumoniae isolates); “able to reduce the biofilm formed” in assay [4] (peptide at sub-inhibitory concentrations (1/2 and 1/4 of the MIC), vs control biofilm).

As usually defined, the MIC is the lowest concentration found to suppress growth. Read a low MIC as greater potency.

Source of the values: publication PMC6710338, “Turning a Collagenesis-Inducing Peptide Into a Potent Antibacterial and Antibiofilm Agent Against Multidrug-Resistant Gram-Negative Bacteria” (Frontiers in Microbiology, 2019).
